Legend:
Type in all cases: functional
Conditions in all cases: route intraperitoneal
Mus musculus [1] = experiment: Hypoglycemic activity in diabetic KK-Ay mouse at 50 mg/kg, ip assessed as blood glucose level per 100 mL blood after 4 hrs
Mus musculus [2] = experiment: Hypoglycemic activity in normal ddY mouse at 50 mg/kg, ip assessed as blood glucose level per 100 mL blood after 7 hrs
Mus musculus [3] = experiment: Hypoglycemic activity in diabetic KK-Ay mouse at 50 mg/kg, ip assessed as blood glucose level per 100 mL blood after 7 hrs
Mus musculus [4] = experiment: Hypoglycemic activity in normal ddY mouse at 50 mg/kg, ip assessed as blood glucose level per 100 mL blood after 4 hrs
Mus musculus [5] = experiment: Hypoglycemic activity in diabetic KK-Ay mouse at 5 mg/kg, ip assessed as blood glucose level per 100 mL blood after 7 hrs
Mus musculus [6] = experiment: Hypoglycemic activity in normal ddY mouse at 5 mg/kg, ip assessed as blood glucose level per 100 mL blood after 7 hrs
Mus musculus [7] = experiment: Hypoglycemic activity in diabetic KK-Ay mouse at 5 mg/kg, ip assessed as blood glucose level per 100 mL blood after 4 hrs
Mus musculus [8] = experiment: Hypoglycemic activity in normal ddY mouse at 5 mg/kg, ip assessed as blood glucose level per 100 mL blood after 4 hrs
Mus musculus [9] = experiment: Hypoglycemic activity in diabetic KK-Ay mouse at 1 mg/kg, ip assessed as blood glucose level per 100 mL blood after 4 hrs
Mus musculus [10] = experiment: Hypoglycemic activity in diabetic KK-Ay mouse at 1 mg/kg, ip assessed as blood glucose level per 100 mL blood after 7 hrs
Mus musculus [11] = experiment: Hypoglycemic activity in normal ddY mouse at 1 mg/kg, ip assessed as blood glucose level per 100 mL blood after 7 hrs
Mus musculus [12] = experiment: Hypoglycemic activity in normal ddY mouse at 1 mg/kg, ip assessed as blood glucose level per 100 mL blood after 4 hrs

`CCCCNC(=O)NS(=O)(=O)c1ccc(C)cc1` [TOLBUTAMIDE] was tested, and the Activity (Mus musculus [1]) was 495 mg, the Activity (Mus musculus [2]) was 170 mg and the Activity (Mus musculus [3]) was 370 mg. For the same molecule, the Activity (Mus musculus [4]) was 160 mg.
Work on `COc1ccc(/C=C/C(=O)O[C@@H]2[C@H](O)[C@@H](O[C@@H]3O[C@@H](C)[C@H](O[C@@H]4OC[C@@H](O[C@@H]5O[C@H](CO)[C@H](O)[C@H](O)[C@H]5O)[C@H](O)[C@H]4O)[C@@H](O)[C@H]3O)[C@H](OC(=O)[C@]34CCC(C)(C)C[C@@H]3C3=CC[C@@H]5[C@@]6(C)C[C@H](O[C@@H]7O[C@H](CO)[C@@H](O)[C@H](O)[C@H]7O)[C@H](O)[C@@](C)(C(=O)O)[C@@H]6CC[C@@]5(C)[C@]3(CO)CC4)O[C@@H]2C)cc1` [DESMETHOXYSENEGIN II] yielded an Activity (Mus musculus [5]) of 325 mg/dL, an Activity (Mus musculus [6]) of 195 mg/dL and an Activity (Mus musculus [7]) of 306 mg/dL. For the same molecule, the Activity (Mus musculus [8]) was 199 mg/dL.
Molecule `COc1cc(/C=C/C(=O)OC[C@@]2(O[C@H]3O[C@H](COC(C)=O)[C@@H](OC(=O)/C=C/c4ccc(O)c(OC)c4)[C@H](O[C@@H]4O[C@H](COC(C)=O)[C@@H](O[C@@H]5O[C@H](CO)[C@@H](O)[C@H](O)[C@H]5O)[C@H](O)[C@H]4O)[C@H]3O[C@@H]3O[C@H](CO)[C@@H](O)[C@H](O)[C@H]3O)O[C@H](CO)[C@@H](O)[C@@H]2OC(=O)c2ccccc2)ccc1O` [SENEGOSE A] has an Activity (Mus musculus [5]) of 368 mg/dL, an Activity (Mus musculus [6]) of 199 mg/dL and an Activity (Mus musculus [7]) of 401 mg/dL. The Activity (Mus musculus [8]) was 197 mg/dL.
`COc1ccc(/C=C/C(=O)O[C@@H]2[C@H](O[C@@H]3O[C@@H](C)[C@H](O)[C@@H](O)[C@H]3O)[C@@H](O[C@@H]3O[C@@H](C)[C@H](O[C@@H]4OC[C@@H](O[C@@H]5O[C@H](CO)[C@H](O)[C@H](O)[C@H]5O)[C@H](O)[C@H]4O)[C@@H](O)[C@H]3O)[C@H](OC(=O)[C@]34CCC(C)(C)C[C@@H]3C3=CC[C@@H]5[C@@]6(C)C[C@H](O[C@@H]7O[C@H](CO)[C@@H](O)[C@H](O)[C@H]7O)[C@H](O)[C@@](C)(C(=O)O)[C@@H]6CC[C@@]5(C)[C@]3(CO)CC4)O[C@@H]2C)cc1` [SENEGIN III] was tested, and the Activity (Mus musculus [5]) was 146 mg/dL, the Activity (Mus musculus [6]) was 160 mg/dL and the Activity (Mus musculus [9]) was 195 mg. It also gave an Activity (Mus musculus [7]) of 204 mg/dL, an Activity (Mus musculus [10]) of 210 mg and an Activity (Mus musculus [11]) of 172 mg. The Activity (Mus musculus [8]) was 151 mg/dL and the Activity (Mus musculus [12]) was 167 mg.
With `COc1ccc(/C=C/C(=O)O[C@@H]2[C@H](O[C@@H]3O[C@@H](C)[C@H](O)[C@@H](O)[C@H]3O)[C@@H](O[C@@H]3O[C@@H](C)[C@H](O[C@@H]4OC[C@@H](O[C@@H]5O[C@H](CO)[C@H](O)[C@H](O)[C@H]5O)[C@H](O)[C@H]4O)[C@@H](O[C@H]4OC[C@](O)(CO)[C@H]4O)[C@H]3O)[C@H](OC(=O)[C@]34CCC(C)(C)C[C@@H]3C3=CC[C@@H]5[C@@]6(C)C[C@H](O[C@@H]7O[C@H](CO)[C@@H](O)[C@H](O)[C@H]7O)[C@H](O)[C@@](C)(C(=O)O)[C@@H]6CC[C@@]5(C)[C@]3(CO)CC4)O[C@@H]2C)cc1` [SENEGIN IV] the Activity (Mus musculus [5]) was 388 mg/dL, the Activity (Mus musculus [6]) was 169 mg/dL and the Activity (Mus musculus [9]) was 207 mg. The Activity (Mus musculus [7]) was 276 mg/dL, the Activity (Mus musculus [10]) was 276 mg and the Activity (Mus musculus [11]) was 171 mg. It also gave an Activity (Mus musculus [8]) of 187 mg/dL and an Activity (Mus musculus [12]) of 177 mg.
With `COc1ccc(/C=C/C(=O)O[C@@H]2[C@H](O)[C@@H](O[C@@H]3O[C@@H](C)[C@H](O[C@@H]4OC[C@@H](O[C@@H]5O[C@H](CO)[C@H](O)[C@H](O)[C@H]5O)[C@H](O)[C@H]4O)[C@@H](O)[C@H]3O)[C@H](OC(=O)[C@]34CCC(C)(C)C[C@@H]3C3=CCC5[C@@]6(C)C[C@H](O[C@@H]7O[C@H](CO)[C@@H](O)[C@H](O)[C@H]7O)[C@H](O)[C@@](C)(C(=O)O)[C@@H]6CC[C@@]5(C)[C@]3(CO)CC4)O[C@@H]2C)cc1OC` (stereo partly specified) [SENEGIN II] the Activity (Mus musculus [5]) was 182 mg/dL, the Activity (Mus musculus [6]) was 140 mg/dL and the Activity (Mus musculus [9]) was 226 mg. For the same molecule, the Activity (Mus musculus [7]) was 217 mg/dL, the Activity (Mus musculus [10]) was 305 mg and the Activity (Mus musculus [11]) was 149 mg. It also gave an Activity (Mus musculus [8]) of 137 mg/dL and an Activity (Mus musculus [12]) of 139 mg.

From ChEMBL document CHEMBL1145691, “Hypoglycemic activity of some triterpenoid glycosides” (1997)
